# Like-named read-outs stand apart in the source and are kept apart here.
# How the values were obtained:
# [1] = tested on: UWB1.289 cells; assay: Cell proliferation inhibitory activity in BRCA1/2-mutant or HRD-positive cells (Cell Titer-Glo); type: cell-based; details: read-out: GI50 UWB1.289 BRCA1 mut
# Summary of the method: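 UWB1.289 cells (1,000/well) in 50% MEBM/50% RPMI1640 exposed to […], final 1.5 nM to 10 µM, for 144 h at 37 °C. Viable cells measured by CellTiter-Glo luminescence; GI50 calculated.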
# [2] = biological target: T1, recombinant USP1 protein (Homo sapiens, UniProt O94782, DEL125-138/DEL229-408/DEL608-737); assay: Binding affinity to recombinant USP1 protein by differential scanning fluorimetry; details: read-out: ΔTm (°C)
# T1 sequence (O94782 with tags, fused parts or gaps DEL125-138/DEL229-408/DEL608-737): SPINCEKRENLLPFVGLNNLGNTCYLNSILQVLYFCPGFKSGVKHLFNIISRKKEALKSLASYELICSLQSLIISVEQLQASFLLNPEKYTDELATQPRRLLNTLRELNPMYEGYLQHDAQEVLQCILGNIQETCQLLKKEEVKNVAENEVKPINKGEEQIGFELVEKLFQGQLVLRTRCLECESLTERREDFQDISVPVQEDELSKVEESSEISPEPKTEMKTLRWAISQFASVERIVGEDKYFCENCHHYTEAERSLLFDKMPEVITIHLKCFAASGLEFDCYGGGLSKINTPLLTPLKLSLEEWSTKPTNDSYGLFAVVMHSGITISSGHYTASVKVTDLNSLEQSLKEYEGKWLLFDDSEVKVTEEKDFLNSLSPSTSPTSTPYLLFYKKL
# Summary of the method: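 USP1 (Δ1-66, Δ125-138, Δ229-408, Δ608-737) at 0.03 mg/mL with dye in 50 mM Tris-HCl pH 8.0, 150 mM NaCl, 2% glycerol, 1 mM DTT; compounds at 100 µM final. Tm read on real-time PCR instrument; ΔTm = Tm with compound minus Tm with DMSO.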
# [3] = UWB1289, UWB1.289 cells, 144 hours after compound treatment, Cell Titer-Glo, 1.5 nM to 10 µM
# [4] = compound 100 µM, 0.03 mg/mL USP1 (Δ1-66, Δ125-138, Δ229-408, Δ608-737), Tm with compound minus Tm with DMSO
SMILES,"GI50 [1, 3] [nM]","ΔTm at 100 µM [2, 4] [°C]","GI50 ([1]; UWB1289, 144 h) [nM]",ΔTm at 100 µM [2] [°C]
"COc1ncnc(C2CC2)c1-c1ncc2cc(C(=O)NC3(CO)COC3)n(Cc3ccc(-c4nc(C(F)(F)F)cn4C(C)C)cc3)c2n1 [Example 138, 2-(4-cyclopropyl-6-methoxypyrimidin-5-yl)-N-(3-(hydroxymethyl)oxetan-3-yl)-7-(4-(1-isopropyl-4-(trifluoromethyl)-1H-imidazol-2-yl)benzyl)-7H-pyrrolo[2,3-d]pyrimidine-6-carboxamide]",< 100,> 5,–,–
"COc1ncnc(C2CC2)c1-c1ncc2cc(C(=O)N(C)CC3COC3)n(Cc3ccc(-c4nc(C(F)(F)F)cn4C(C)C)cc3)c2n1 [Example 139, 2-(4-cyclopropyl-6-methoxypyrimidin-5-yl)-7-(4-(1-isopropyl-4-(trifluoromethyl)-1H-imidazol-2-yl)benzyl)-N-methyl-N-(oxetan-3-ylmethyl)-7H-pyrrolo[2,3-d]pyrimidine-6-carboxamide]",–,–,< 100,> 5
"COc1ncnc(C2CC2)c1-c1ncc2cc(C(=O)NCC3(O)COC3)n(Cc3ccc(-c4nc(C(F)(F)F)cn4C(C)C)cc3)c2n1 [Example 140, 2-(4-cyclopropyl-6-methoxypyrimidin-5-yl)-N-((3-hydroxyoxetan-3-yl)methyl)-7-(4-(1-isopropyl-4-(trifluoromethyl)-1H-imidazol-2-yl)benzyl)-7H-pyrrolo[2,3-d]pyrimidine-6-carboxamide]",–,–,< 100,> 5
"COc1ncnc(C2CC2)c1-c1ncc2cc(C(=O)NCC3COC3)n(Cc3ccc(-c4nc(C(F)(F)F)cn4C(C)C)cc3)c2n1 [Example 141, 2-(4-cyclopropyl-6-methoxypyrimidin-5-yl)-7-(4-(1-isopropyl-4-(trifluoromethyl)-1H-imidazol-2-yl)benzyl)-N-(oxetan-3-ylmethyl) -7H-pyrrolo[2,3-d]pyrimidine-6-carboxamide]",< 100,> 5,–,–
"COc1ncnc(C2CC2)c1-c1ncc2cc(C(=O)NCC3(F)COC3)n(Cc3ccc(-c4nc(C(F)(F)F)cn4C(C)C)cc3)c2n1 [Example 142, 2-(4-cyclopropyl-6-methoxypyrimidin-5-yl)-N-((3-fluorooxetan-3-yl)methyl)-7-(4-(1-isopropyl-4-(trifluoromethyl)-1H-imidazol-2-yl)benzyl)-7H-pyrrolo[2,3-d]pyrimidine-6-carboxamide]",< 100,> 5,–,–
"CNCCNC(=O)c1cc2cnc(-c3c(OC)ncnc3C3CC3)nc2n1Cc1ccc(-c2nc(C(F)(F)F)cn2C(C)C)cc1 [Example 143, 2-(4-cyclopropyl-6-methoxypyrimidin-5-yl)-7-(4-(1-isopropyl-4-(trifluoromethyl)-1H-imidazol-2-yl)benzyl) -N-(2-(methylamino)ethyl)-7H-pyrrolo[2,3-d]pyrimidine-6-carboxamide]",100 to 500,> 5,–,–
"CNC1CN(C(=O)c2cc3cnc(-c4c(OC)ncnc4C4CC4)nc3n2Cc2ccc(-c3nc(C(F)(F)F)cn3C(C)C)cc2)C1 [Example 144, (2-(4-cyclopropyl-6-methoxypyrimid in-5-yl)-7-(4-(1-isopropyl-4-(trifluoromethyl)-1H-imidazol-2-yl)benzyl) -7H-pyrrolo[2,3-d]pyrimidin-6-yl) (3-(methylamino)azetidin-1-yl)methanone]",< 100,> 5,–,–
"CNC(=O)c1cc2cnc(-c3c(OC)ncnc3C3CC3)nc2n1Cc1ccc(-c2nc(C(F)(F)F)cn2C2CC2)cc1 [Example 145, 7-(4-(1-cyclopropyl-4-(trifluoromethyl) -1H-imidazol-2-yl)benzyl)-2-(4-cyclopropyl-6-methoxypyrimidin-5-yl)-N-methyl-7H-pyrrolo[2,3-d]pyrimidine-6-carboxamide]",100 to 500,> 5,–,–
"CNC(=O)c1cc2cnc(-c3c(OC)ncnc3C3CC3)nc2n1Cc1ccc(-c2nc(C(F)(F)F)cn2C(C)C)c(F)c1 [Example 146, 2-(4-cyclopropyl-6-methoxypyrimidin-5-yl)-7-(3-fluoro-4-(1-isopropyl-4-(trifluoromethyl)-1H-imidazol-2-yl)benzyl)-N-methyl-7H-pyrrolo[2,3-d]pyrimidine-6-carboxamide]",< 100,> 5,–,–
"CNC(=O)c1cc2cnc(-c3cccnc3OC)nc2n1Cc1ccc(-c2nc(C(F)(F)F)cn2C(C)C)cc1 [Example 147, 7-(4-(1-isopropyl-4-(trifluoromethyl)-1H-imidazol-2-yl)benzyl)-2-(2-methoxypyridin-3-yl)-N-methyl-7H-pyrrolo[2,3-d]pyrimidine-6-carboxamide]",< 100,> 5,–,–
"COc1ncnc(C2CC2)c1-c1ncc2cc(C(=O)NCCN3CCC3)n(Cc3ccc(-c4nc(C(F)(F)F)cn4C(C)C)cc3)c2n1 [Example 149, N-(2-(azetidin-1-yl)ethyl)-2-(4-cyclopropyl-6-methoxypyrimidin-5-yl)-7-(4-(1-isopropyl-4-(trifluoromethyl)-1H-imidazol-2-yl)benzyl)-7H-pyrrolo[2,3-d]pyrimidine-6-carboxamide]",< 100,> 5,–,–
"COc1ncnc(C2CC2)c1-c1ncc2cc(C(=O)NC3CC3)n(Cc3ccc(-c4nc(C(F)(F)F)cn4C)cc3)c2n1 [Example 150, N-cyclopropyl-2-(4-cyclopropyl-6-methoxypyrimidin-5-yl)-7-(4-(1-methyl-4-(trifluoromethyl)-1H-imidazol-2-yl)benzyl)-7H-pyrrolo[2,3-d]pyrimidine-6-carboxamide]",< 100,> 5,–,–
"COc1ncnc(C2CC2)c1-c1ncc2cc(C(=O)N[C@H](C)CO)n(Cc3ccc(-c4nc(C(F)(F)F)cn4C)cc3)c2n1 [Example 151, (R) -2-(4-cyclopropyl-6-methoxypyrimidin-5-yl)-N-(1-hydroxypropan-2-yl)-7-(4-(1-methyl-4-(trifluoromethyl)-1H-imidazol-2-yl)benzyl)-7H-pyrrolo[2,3-d]pyrimidine-6-carboxamide]",< 100,> 5,–,–
"COc1ncnc(C2CC2)c1-c1ncc2cc(C(=O)NC[C@H](O)CO)n(Cc3ccc(-c4nc(C(F)(F)F)cn4C)cc3)c2n1 [Example 152, (S)-2-(4-cyclopropyl-6-methoxypyrimidin-5-yl)-N-(2,3-dihydroxypropy 1)-7-(4-(1-methyl-4-(trifluoromethyl)-1H-imidazol-2-yl)benzyl)-7H-pyrrolo[2,3-d]pyrimidine-6-carboxamide]",100 to 500,> 5,–,–
"COc1ncnc(C2CC2)c1-c1ncc2cc(C(=O)NC3CCN(C)CC3)n(Cc3ccc(-c4nc(C(F)(F)F)cn4C)cc3)c2n1 [Example 153, 2-(4-cyclopropyl-6-methoxypyrimidin-5-yl)-7-(4-(1-methyl-4-(trifluoromethyl)-1H-imidazol-2-yl)benzyl)-N-(1-methylpiperidin-4-yl)-7H-pyrrolo[2,3-d]pyrimidine-6-carboxamide]",< 100,> 5,–,–
"CNC(=O)c1cc2cnc(-c3c(OC)ncnc3C3CC3)cc2n1Cc1ccc(-c2nc(C(F)(F)F)cn2C(C)C)cc1 [Example 154, 6-(4-cyclopropyl-6-methoxypyrimidin-5-yl)-1-(4-(1-isopropyl-4-(trifluoromethyl)-1H-imidazol-2-yl)benzyl)-N-methyl-1H-pyrrolo[3,2-c]pyridine-2-carboxamide]",< 100,> 5,–,–
